From ChEMBL document CHEMBL5154741, “Antibacterial alkylguanidino ureas: Molecular simplification approach, searching for membrane-based MoA” (Eur J Med Chem, 2022)

Key:
[1] = Apparent permeability of the compound across bacterial inner membrane mimic pure POPG in PBS buffer at pH 7.4 incubated for 5 hrs in presence of 1,1-bis({6-[N'-(cyclopropylmethyl)carbamimidamido]hexyl})-3-{8-[N'-(cyclopropylmethyl)carbamimidamido]octyl}-3-octylurea by PAMPA based UV-Vis spectrophotometric analysis
[2] = (§1) Apparent permeability of the compound across bacterial inner membrane mimic POPE/POPG (6:4) in PBS buffer at pH 7.4 incubated for 5 hrs in presence of 1,3,3-tris(8-carbamimidamidooctyl)-1-{8-[N'-(cyclopropylmethyl)carbamimidamido]octyl}urea trifluoroacetate salt by PAMPA based UV-Vis spectrophotometric analysis
[3] = Apparent permeability of the compound across bacterial inner membrane mimic POPE/POPG (6:4) in PBS buffer at pH 7.4 incubated for 5 hrs in presence of 1,3-bis(8-carbamimidamidooctyl)-1,3-bis({8-[N'-(cyclopropylmethyl)carbamimidamido]octyl})urea by PAMPA based UV-Vis spectrophotometric analysis
[4] = Apparent permeability of the compound across bacterial inner membrane mimic POPE/POPG (6:4) in PBS buffer at pH 7.4 incubated for 5 hrs in presence of 1,3-bis(8-aminooctyl)-1,3-bis(8- carbamimidamidooctyl)urea trifluoroacetate salt by PAMPA based UV-Vis spectrophotometric analysis
[5] = Apparent permeability of the compound across bacterial inner membrane mimic PC-phospholipids in PBS buffer at pH 7.4 incubated for 5 hrs by PAMPA based UV-Vis spectrophotometric analysis; format: ADME
[6] = (§2) Apparent permeability of the compound across bacterial inner membrane mimic pure POPG in PBS buffer at pH 7.4 incubated for 5 hrs in presence of 1,3-bis(8-aminooctyl)-1,3-bis(8- carbamimidamidooctyl)urea trifluoroacetate salt by PAMPA based UV-Vis spectrophotometric analysis
[7] = Apparent permeability of the compound across bacterial inner membrane mimic PC-phospholipids in PBS buffer at pH 7.4 incubated for 5 hrs in presence of 1,3-bis(8-carbamimidamidooctyl)-1,3-bis({8-[N'-(cyclopropylmethyl)carbamimidamido]octyl})urea by PAMPA based UV-Vis spectrophotometric analysis
[8] = as §1, with “PC-phospholipids” for “POPE/POPG (6:4)”
[9] = as §2, with “1,3,3-tris(8-carbamimidamidooctyl)-1-{8-[N'-(cyclopropylmethyl)carbamimidamido]octyl}urea” for “1,3-bis(8-aminooctyl)-1,3-bis(8- carbamimidamidooctyl)urea”
[10] = Apparent permeability of the compound across bacterial inner membrane mimic POPE/POPG (6:4) in PBS buffer at pH 7.4 incubated for 5 hrs by PAMPA based UV-Vis spectrophotometric analysis; format: ADME
[11] = Apparent permeability of the compound across bacterial inner membrane mimic pure POPG in PBS buffer at pH 7.4 incubated for 5 hrs in presence of 1,3-bis(8-carbamimidamidooctyl)-1,3-bis({8-[N'-(cyclopropylmethyl)carbamimidamido]octyl})urea by PAMPA based UV-Vis spectrophotometric analysis
[12] = Apparent permeability of the compound across bacterial inner membrane mimic pure POPG in PBS buffer at pH 7.4 incubated for 5 hrs by PAMPA based UV-Vis spectrophotometric analysis; format: ADME
[13] = Apparent permeability of the compound across bacterial inner membrane mimic PC-phospholipids in PBS buffer at pH 7.4 incubated for 5 hrs in presence of 1,1-bis({6-[N'-(cyclopropylmethyl)carbamimidamido]hexyl})-3-{8-[N'-(cyclopropylmethyl)carbamimidamido]octyl}-3-octylurea by PAMPA based UV-Vis spectrophotometric analysis
[14] = Apparent permeability of the compound across bacterial inner membrane mimic pure POPG in PBS buffer at pH 7.4 incubated for 5 hrs in presence of {8-[N'(cyclopropylmethyl)carbamimidamido]octyl}urea trifluoroacetate salt by PAMPA based UV-Vis spectrophotometric analysis
[15] = Apparent permeability of the compound across bacterial inner membrane mimic PC-phospholipids in PBS buffer at pH 7.4 incubated for 5 hrs in presence of 1,3-bis(8-aminooctyl)-1,3-bis(8- carbamimidamidooctyl)urea trifluoroacetate salt by PAMPA based UV-Vis spectrophotometric analysis
[16] = Apparent permeability of the compound across bacterial inner membrane mimic PC-phospholipids in PBS buffer at pH 7.4 incubated for 5 hrs in presence of {8-[N'(cyclopropylmethyl)carbamimidamido]octyl}urea trifluoroacetate salt by PAMPA based UV-Vis spectrophotometric analysis
[17] = Apparent permeability of the compound across bacterial inner membrane mimic POPE/POPG (6:4) in PBS buffer at pH 7.4 incubated for 5 hrs in presence of 1,1-bis({6-[N'-(cyclopropylmethyl)carbamimidamido]hexyl})-3-{8-[N'-(cyclopropylmethyl)carbamimidamido]octyl}-3-octylurea by PAMPA based UV-Vis spectrophotometric analysis
[18] = Apparent permeability of the compound across bacterial inner membrane mimic POPE/POPG (6:4) in PBS buffer at pH 7.4 incubated for 5 hrs in presence of {8-[N'(cyclopropylmethyl)carbamimidamido]octyl}urea trifluoroacetate salt by PAMPA based UV-Vis spectrophotometric analysis

In the case of `O=C(N[C@H](CO)[C@H](O)c1ccc([N+](=O)[O-])cc1)C(Cl)Cl` [CHLORAMPHENICOL], the Papp at 5 h [1] is reported as 3.39 ×10⁻⁶ cm/s, the Papp at 5 h [2] is reported as 6.98 ×10⁻⁶ cm/s and the Papp at 5 h [3] is reported as 1.39 ×10⁻⁶ cm/s. The Papp at 5 h [4] was 6.11 ×10⁻⁶ cm/s, the Papp at 5 h [5] was 0.54 ×10⁻⁶ cm/s and the Papp at 5 h [6] was 3.14 ×10⁻⁶ cm/s. It also gave a Papp at 5 h [7] of 6.12 ×10⁻⁶ cm/s, a Papp at 5 h [8] of 4.67 ×10⁻⁶ cm/s and a Papp at 5 h [9] of 3.78 ×10⁻⁶ cm/s. The Papp at 5 h [10] was 1.12 ×10⁻⁶ cm/s, the Papp at 5 h [11] was 2.18 ×10⁻⁶ cm/s and the Papp at 5 h [12] was 0.06 ×10⁻⁶ cm/s. It also gave a Papp at 5 h [13] of 8.73 ×10⁻⁶ cm/s, a Papp at 5 h [14] of 0.08 ×10⁻⁶ cm/s and a Papp at 5 h [15] of 3.24 ×10⁻⁶ cm/s. It also gave a Papp at 5 h [16] of 0.04 ×10⁻⁶ cm/s, a Papp at 5 h [17] of 6.64 ×10⁻⁶ cm/s and a Papp at 5 h [18] of 1.67 ×10⁻⁶ cm/s.
